From patent US9402875B2, “Amidated dopamine neuron stimulating peptide restoration of mitochondrial activity” (University of Kentucky Research Foundation, priority 2006, dated 2016)
Ends that are not written are not given here.

Legend:
[1] = system: MN9D dopaminergic cells; experiment: Caspase-3 activity assay, protection against 6-OHDA toxicity; assay type: cell-based; conditions: 1 ng/mL for 1 hour before 100 μM 6-OHDA for 15 min; at 3 h
Description: MN9D Cell Cultures: The MN9D cell line has been described by Choi (1991) Brain Res. 552:67-76 and was a gift from Michael Zigmond. Cells were cultured in DMEM supplemented with 10% Fetal Bovine Serum (FBS, Hyclone), 50 U/mL penicillin and streptomycin. For experiments, the cells were plated on 24-well poly-D-lysine in DMEM with 1% (v/v) penicillin-streptomycin. The cells were grown at 37° C. in 5% CO2.
Caspase-3 Activity Assay in MN9D Cells: MN9D cells were plated to 100,000 cells/well. Cell cultures were exposed to DNSP-11 (1 ng/mL) or buffer for 1 hour prior to 15 min 100 μM 6-OHDA exposure. Caspase-3 activity was monitored after 3 hours by fluorescence (excitation/emission 496/520 nm) using the Enz Chek Caspase-3 kit. Protein levels of lysed cells were measured by BCA assay (BioRad) and normalized for every experiment. Data expressed as % control and repeated a minimum of 3 times.
To evaluate DNSP-11's neuroprotective properties, DNSP-11 was compared to GDNF in its protection against 6-OHDA-induced toxicity in the dopaminergic cell line, MN9D. MN9D dopaminergic cells were incubated for 1 hour with either citrate buffer (control), 1 ng/mL of DNSP-11 or GDNF prior to 100 μM 6-OHDA exposure for 15 min. Data are +SD, one-way ANOVA with Tukey's post hoc analysis, *p<0.05, **p<0.01, ***p<0.001 vs. control; #p<0.05, ##p<0.01, ###p<0.001 vs. 6-OHDA.

[2] = molecular target: T1, GFRα1 (Homo sapiens, UniProt P56159); experiment: Pull-down assay and ELISA with GFRα1; assay type: binding; conditions: pull-down with biotinylated DNSP-11; supported by ELISA
T1 sequence (P56159 25-429): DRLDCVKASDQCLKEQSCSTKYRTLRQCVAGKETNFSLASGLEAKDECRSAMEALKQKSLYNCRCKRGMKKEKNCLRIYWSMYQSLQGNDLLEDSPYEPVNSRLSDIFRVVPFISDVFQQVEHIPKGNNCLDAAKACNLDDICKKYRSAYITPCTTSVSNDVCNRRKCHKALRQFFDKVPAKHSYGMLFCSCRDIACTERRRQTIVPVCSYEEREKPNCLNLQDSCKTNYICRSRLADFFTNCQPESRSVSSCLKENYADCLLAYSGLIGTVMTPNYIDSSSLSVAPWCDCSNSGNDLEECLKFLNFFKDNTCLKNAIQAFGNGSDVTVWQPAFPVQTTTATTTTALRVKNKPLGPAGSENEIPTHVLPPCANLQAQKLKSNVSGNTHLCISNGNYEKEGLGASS
Description: Specifically, a solution of 25 μL GFRα1 (1 mg/mL) was incubated with 50 μL of Dynabeads® (Invitrogen) in wash and bind buffer (0.1 M sodium phosphate, pH 8.2, 0.01% ^Tween® 20) for 10 minutes at room temperature. The beads were then washed three times in 100 μl, of wash and bind buffer. 2 μg of GDNF was added and incubated for 1 hour at 4° C. 25 μL GFRα1 (1 mg/mL) was incubated with 40 μg of biotinylated DNSP-11 (bDNSP-11) for 1 hour at 4° C. They were then added to 50 μL of hydrophilic streptavidin magnetic beads (New England Biolabs) and incubated for an hour at 4° C.
Moreover, the absence of interaction between GFRα1 with DNSP-11 is supported by ELISA.

[3] = system: E14 SD rat embryo primary dopaminergic neurons from the ventral mesencephalon; assay type: cell-based
Description: DNSP-11 treatment of Mesencephalic Cells: Timed pregnant SD rats (Harlan) were used to obtain the ventral mesencephalon from E14 fetuses. The dissected tissue was collected in cold Neurobasal™ medium and rinsed twice with cold Dulbecco's PBS. The cells were chemically (TrypLE®) and mechanically dissociated to yield a single cell suspension. The solution was centrifuged at 169 g for 6 minutes and the pellet was resuspended in Dulbecco's Modified Eagle Medium (DMEM). Cells were plated in a 25 μL micro-island at a density of 4000 cells/μL on poly-D-lysine coated 24-well plates (Sigma). Following adherence, cells were supplemented with warm NEUROBASAL™ media containing 2 mM glutamine, 1×N2, and 100 units of penicillin/streptomycin. Neurotrophic compounds were added at each media addition, including initial plating and DIV 2. A dose response of the peptides (0.03 ng to 10 ng/mL) was added to a 24-well plate following media supplementation.
The neurotrophic effects of DNSP-11 were studied by comparing its effects to the well-known effects of GDNF on the maintenance of primary mesencephalic cell cultures from E14 SD rat embryos. E14 SD rat embryo primary dopaminergic neurons from the ventral mesencephalon were grown for 5 days in vitro and neurotrophic molecules were added at each media change, including initial plating and day 2. […] These effects were similar to those observed for GDNF in these cells, including an increase in the size of TH+ neurons, which was not observed for DNSP-11 (Table 4).
In Table 1, cell survival and morphological parameters were quantified for control (citrate buffer) and experimental (0.1 ng/ml GDNF or 0.1 ng/ml DNSP-11) conditions. For morphology, five fields per well (minimum of 15 cells/field; 3-4 independent experiments) were photographed at 20× magnification and quantified using a Bioquant Image Analysis System. […] Soma size was not increased by the addition of DNSP-11. A one-way ANOVA was used to test for significance among groups, followed by a Newman-Keuls post hoc analysis. Significance between control and experimental conditions was determined at *p<0.05 and **p<0.01.

Substance: PPEAPAEDRSL-NH2 [DNSP-11, PPEAPAEDRSL-amide]
- caspase-3 activity [1]: significant reduction
- interaction with GFRα1 [2]: do not interact
- Cell survival ([3]; 0.1 ng/ml, 5 days in vitro, control 100): *161 ± 17
- Average branches per neuron ([3]; 0.1 ng/ml, controls 3.8 ± 0.2 (GDNF), 3.1 ± 0.2 (DNSP-11)): **4.4 ± 0.3
- Soma size (um^2) ([3]; 0.1 ng/ml, controls 171 ± 4 (GDNF), 168 ± 3 (DNSP-11)): 165 ± 5 um^2
- Combined neurite length (um) ([3]; 0.1 ng/ml, controls 242 ± 12 (GDNF), 222 ± 11 (DNSP-11)): **306 ± 23 um
- TH+ neuron counts ([3]; 0.03, 0.1, 1.0 and 10 ng/ml): significantly increase
